Test results: patent US12077503B2, “Substituted cyclic amides and their use as herbicides” (FMC CORPORATION, priority 2015, dated 2024)

Columns and labels:
Type in all cases: in vivo
corn (Zea mays) [1] = assay: Test G Pre-Emergence Protocol; settings: Zea mays, pre-emergence, 312 h, evaluated after 13 days
How it was run: (§1)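 One day after sowing, pots are treated with a spray of test compound formulated in acetone/water 50:50 plus 0.5% Tween 20, giving 15.625, 62.5 or 250 g/ha. Evaluation on a 0–100 damage scale follows 13 days of glasshouse growth.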

[2] = test system: barnyardgrass (Echinochloa crus-galli); assay: Test G Pre-Emergence Protocol; settings: Echinochloa crus-galli, pre-emergence, 312 h, evaluated after 13 days
How it was run: as §1

[3] = test system: velvetleaf (Abutilon theophrasti); assay: Test G Pre-Emergence Protocol; settings: Abutilon theophrasti, pre-emergence, 312 h, evaluated after 13 days
How it was run: as §1

[4] = test system: redroot pigweed (Amaranthus retroflexus); assay: Test G Pre-Emergence Protocol; settings: Amaranthus retroflexus, pre-emergence, 312 h, evaluated after 13 days
How it was run: as §1

[5] = test system: ivy-leaved morning glory (Ipomoea hederacea); assay: Test G Pre-Emergence Protocol; settings: Ipomoea, pre-emergence, 312 h, evaluated after 13 days
How it was run: as §1

[6] = test system: giant foxtail (Setaria faberi); assay: Test G Pre-Emergence Protocol; settings: Setaria faberi, pre-emergence, 312 h, evaluated after 13 days
How it was run: as §1

corn (Zea mays) [7] = assay: Test G Post-Emergence Protocol; settings: Zea mays, post-emergence, 312 h
How it was run: (§2)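 Scores run 0 (no damage) to 100 (total damage) and were taken 13 days after spraying. Plants had been raised in pots for 8 days under glasshouse control (24/16 °C, 14 h photoperiod, 65% humidity) and then treated at 15.625, 62.5 or 250 g/ha.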

[8] = test system: barnyardgrass (Echinochloa crus-galli); assay: Test G Post-Emergence Protocol; settings: Echinochloa crus-galli, post-emergence, 312 h
How it was run: as §2

[9] = test system: velvetleaf (Abutilon theophrasti); assay: Test G Post-Emergence Protocol; settings: Abutilon theophrasti, post-emergence, 312 h
How it was run: as §2

[10] = test system: redroot pigweed (Amaranthus retroflexus); assay: Test G Post-Emergence Protocol; settings: Amaranthus retroflexus, post-emergence, 312 h
How it was run: as §2

[11] = test system: ivy-leaved morning glory (Ipomoea hederacea); assay: Test G Post-Emergence Protocol; settings: Ipomoea, post-emergence, 312 h
How it was run: as §2

[12] = test system: giant foxtail (Setaria faberi); assay: Test G Post-Emergence Protocol; settings: Setaria faberi, post-emergence, 312 h
How it was run: as §2

CN1C[C@H](c2ccc(C(F)(F)F)cc2)[C@@H](C(=O)Nc2ccc(F)cn2)C1=O (racemic) [Compound 1450]
0%: plant injury at 15.625 g/ha (corn (Zea mays) [1]; 15.625 g ai/ha, read-out: Corn damage rating (100=total damage to plant; 0=no damage to plant)) | plant injury at 62.5 g/ha (corn (Zea mays) [1]; 62.5 g ai/ha, 100=total damage to plant, 0=no damage to plant, read-out: plant damage rating, Corn) | plant injury at 250 g/ha (corn (Zea mays) [1]; 250 g ai/ha, read-out: Corn damage rating (100=total damage to plant; 0=no damage to plant)) | pest or weed control at 15.625 g/ha ([3]; 15.625 g ai/ha, read-out: Velvetleaf damage rating (100=total damage to plant; 0=no damage to plant)) | pest or weed control at 62.5 g/ha ([3]; 62.5 g ai/ha, 100=total damage to plant, 0=no damage to plant, read-out: plant damage rating, Velvetleaf) | pest or weed control at 250 g/ha ([3]; 250 g ai/ha, read-out: Velvetleaf damage rating (100=total damage to plant; 0=no damage to plant)) | pest or weed control at 15.625 g/ha ([4]; 15.625 g ai/ha, read-out: Pigweed, Redroot damage rating (100=total damage to plant; 0=no damage to plant)) | pest or weed control at 62.5 g/ha ([4]; 62.5 g ai/ha, 100=total damage to plant, 0=no damage to plant, read-out: plant damage rating, Pigweed, Redroot) | pest or weed control at 15.625 g/ha ([5]; 15.625 g ai/ha, read-out: Morning-glory, Ivy-leaved damage rating (100=total damage to plant; 0=no damage to plant)) | pest or weed control at 62.5 g/ha ([5]; 62.5 g ai/ha, 100=total damage to plant, 0=no damage to plant, read-out: plant damage rating, Morningglory, Ivy-leaved) | pest or weed control at 250 g/ha ([5]; 250 g ai/ha, read-out: Morningglory, Ivy-leaved damage rating (100=total damage to plant; 0=no damage to plant)) | plant injury at 15.625 g/ha (corn (Zea mays) [7]; 15.625 g ai/ha, evaluated after 13 days (100=total damage to plant; 0=no damage to plant), read-out: Corn damage rating) | pest or weed control at 15.625 g/ha ([8]; 15.625 g ai/ha, evaluated after 13 days (100=total damage to plant; 0=no damage to plant), read-out: Barnyardgrass damage rating) | pest or weed control at 15.625 g/ha ([9]; 15.625 g ai/ha, evaluated after 13 days (100=total damage to plant; 0=no damage to plant), read-out: Velvetleaf damage rating) | pest or weed control at 62.5 g/ha ([9]; 62.5 g ai/ha, evaluated after 13 days, read-out: Velvetleaf damage rating (100=total damage to plant; 0=no damage to plant)) | pest or weed control at 250 g/ha ([9]; 250 g ai/ha, evaluated after 13 days, read-out: damage to plant, Velvetleaf (100=total damage to plant; 0=no damage to plant)) | pest or weed control at 15.625 g/ha ([10]; 15.625 g ai/ha, evaluated after 13 days (100=total damage to plant; 0=no damage to plant), read-out: Pigweed, Redroot damage rating) | pest or weed control at 62.5 g/ha ([10]; 62.5 g ai/ha, evaluated after 13 days, read-out: Pigweed, Redroot damage rating (100=total damage to plant; 0=no damage to plant)) | pest or weed control at 15.625 g/ha ([11]; 15.625 g ai/ha, evaluated after 13 days (100=total damage to plant; 0=no damage to plant), read-out: Morningglory, Ivy-leaved damage rating) | pest or weed control at 15.625 g/ha ([12]; 15.625 g ai/ha, evaluated after 13 days (100=total damage to plant; 0=no damage to plant), read-out: Foxtail, Giant damage rating)
70%: pest or weed control at 250 g/ha ([2]; 250 g ai/ha, read-out: Barnyardgrass damage rating (100=total damage to plant; 0=no damage to plant)) | pest or weed control at 62.5 g/ha ([6]; 62.5 g ai/ha, 100=total damage to plant, 0=no damage to plant, read-out: plant damage rating, Foxtail, Giant)
30%: pest or weed control at 62.5 g/ha ([2]; 62.5 g ai/ha, 100=total damage to plant, 0=no damage to plant, read-out: plant damage rating, Barnyardgrass) | pest or weed control at 250 g/ha ([10]; 250 g ai/ha, evaluated after 13 days, read-out: damage to plant, Pigweed, Redroot (100=total damage to plant; 0=no damage to plant)) | pest or weed control at 62.5 g/ha ([12]; 62.5 g ai/ha, evaluated after 13 days, read-out: Foxtail, Giant damage rating (100=total damage to plant; 0=no damage to plant))
40%: pest or weed control at 15.625 g/ha ([6]; 15.625 g ai/ha, read-out: Foxtail, Giant damage rating (100=total damage to plant; 0=no damage to plant))
20%: pest or weed control at 250 g/ha ([8]; 250 g ai/ha, evaluated after 13 days, read-out: damage to plant, Barnyardgrass (100=total damage to plant; 0=no damage to plant)) | pest or weed control at 250 g/ha ([11]; 250 g ai/ha, evaluated after 13 days, read-out: damage to plant, Morningglory, Ivy-leaved (100=total damage to plant; 0=no damage to plant))
80%: pest or weed control at 250 g/ha ([4]; 250 g ai/ha, read-out: Pigweed, Redroot damage rating (100=total damage to plant; 0=no damage to plant))
60%: pest or weed control at 250 g/ha ([12]; 250 g ai/ha, evaluated after 13 days, read-out: damage to plant, Foxtail, Giant (100=total damage to plant; 0=no damage to plant))
10%: pest or weed control at 15.625 g/ha ([2]; 15.625 g ai/ha, read-out: Barnyard grass damage rating (100=total damage to plant; 0=no damage to plant)) | plant injury at 62.5 g/ha (corn (Zea mays) [7]; 62.5 g ai/ha, evaluated after 13 days, read-out: Corn damage rating (100=total damage to plant; 0=no damage to plant)) | plant injury at 250 g/ha (corn (Zea mays) [7]; 250 g ai/ha, evaluated after 13 days, read-out: damage to plant, Corn (100=total damage to plant; 0=no damage to plant)) | pest or weed control at 62.5 g/ha ([8]; 62.5 g ai/ha, evaluated after 13 days, read-out: Barnyardgrass damage rating (100=total damage to plant; 0=no damage to plant)) | pest or weed control at 62.5 g/ha ([11]; 62.5 g ai/ha, evaluated after 13 days, read-out: Morningglory, Ivy-leaved damage rating (100=total damage to plant; 0=no damage to plant))
90%: pest or weed control at 250 g/ha ([6]; 250 g ai/ha, read-out: Foxtail, Giant damage rating (100=total damage to plant; 0=no damage to plant))
